Assay results: US7462486B2, “Methods of selecting T cell receptor V peptides for therapeutic use” (Oregon Health & Science University, priority 2000, dated 2008)
“Also recorded” adds a separate entry of the source.

How the values were obtained:
Format in all cases: cell-based, human
[1] = system: CD4+CD25− T cells; assay: Treg assay of antigen-specific CD4+CD25+ T cell lines; settings: result in words
[2] = system: IL-10-secreting T cells (PBMC); assay: IL-10 ELISPOT: frequency of TCR CDR2 peptide-specific cells in PBMC; settings: for frequency of IL-10-secreting T cells: 5 healthy controls; for frequency of IL-10-secreting T cells / frequency of responding cells (IL-10) in HC: single peptide; for frequency of responding cells (IL-10) in HC: healthy controls (HC); for frequency of responding cells (IL-10) in SPMS patient: MS186; for IL-10 response, SPMS patient versus HC: third SPMS patient (MS186), FIG. 4; for IL-10 response, MS patients versus HC: comparison in words
Procedure: (§1) Antigens. Antigens used in the ELISPOT assay included ConA (2 μg/ml) and synthetic TCR peptides (25 μg/ml), including 116 known AV and BV gene products.
(§2) T cell frequency. To determine antigen-specific T cell frequency by ELISPOT, blood mononuclear cells were separated by Ficoll density gradient centrifugation, resuspended in 2% human AB serum, and aliquotted at 0.5 and 0.25 million cells in triplicate wells of nitrocellulose-coated microtiter plates (Resolution Technologies) pretreated with anti-IFN-γ (Mabtech, Sweden) or anti-IL-10 (PharMingen, San Diego, Calif.) mAb. Peptides, ConA, and medium were added and the plates incubated at 37 C for 24 hours (IFN-γ) or 48 hours (IL-10). Biotin-labeled secondary mAb for each cytokine was added, followed by streptavidin-alkaline phosphatase (Dako Corp., Carpinteria, Calif.) and substrate (BCIP/NBT phosphatase substrate, KPL, Gaithersburg, Md.) to develop optimal blue staining. Cytokine spots were quantified using an AID Immunospot Analyzer (AID, Cleveland, Ohio) equipped with a high resolution lens camera and analytical software designed for use with the AID system. Mean spots/well were calculated for each Ag, and net counts established after subtraction of background (no Ag). The frequency of Ag-specific spot-forming cells per million PBMC was determined from the average net response observed at two different cell concentrations. The mean net frequency+SEM was calculated for MS patients and HC, and differences compared by Student's t test for significance (p<0.05).
(§3) Preparation of ELISPOT plates. Four flat bottom 96 well plates with nitrocellulose membranes were coated overnight with 4 μg/ml mouse anti-IL-10 monoclonal antibodies (Pharmingen), and an additional 4 plates were coated with 10 μg/ml mouse anti-human INF((Mabtech). Two hours before addition of peptides, plates were washed 3× with sterile PBS, pH 7.2, and blocked for one hour at room temperature with 10% FBS in sterile PBS.
(§4) Blood processing. Twelve tubes of blood (approximately 120 ml) were collected from healthy controls and MS patients. The blood was immediately separated over a Ficoll gradient by centrifugation for 25 minutes at 2100 rpm at 25 degrees. Peripheral blood mononuclear cells (PBMC) so obtained were washed 3× with cold RPMI and resuspended to 10×10^6 cells per ml.
(§5) TCR peptide screens. Sterile stocks containing 1 mg/ml peptide were aliquotted among 4 sterile 96 well polypropylene blocks. Blocks were kept refrigerated for up to one month. Precoated and blocked ELIPSOT plates were washed with 1× with blocking solution and 100 μl of stimulation medium was added (5% fetal bovine serum/1% human AB serum/2 mM pyruvate, 2 mM glutamate, and 50 μg/ml penicillin/streptomycin). 10 μl of each peptide was added per well in triplicate wells. Negative control wells contained RPMI, positive control wells contained 2 μg/ml final concentration ConA. To each well human PBMC were added at a density of 2.5×10^5 cells per well in a total of 8 plates ([…]). Plates were incubated for 24 hours for INF-γ ELISPOTs and for 48 hours for IL-10 ELISPOTs.
(§6) Detection of cytokine producing cells. PBMC were removed from plates by washing with 3× with PBS and 3× with PBS/0.05% Tween, pH 7.6. To each well was added 100 μl of either anti-IFN-γ (1 μg/ml, Mabtech) or anti-IL-10 (2 μg/ml, Pharmingen) and incubated for 4 hours at room temperature in the dark. Plates were washed 4× with PBS/Tween, then 100 μl per well of alkaline-phosphatase-conjugated streptaviden (DAKO) (1:1000 of stock) was added and plates were incubated for 45 minutes at room temperature. Plates were washed 4× with PBS/Tween and 6× with PBS, 1 minute each. 100 μl of BCIP/NBT substrate (KPL laboratories) was added and the color reaction was allowed to develop for 3-7 minutes. Plates were rinsed 3× with distilled water and dried overnight at room temperature.
(§7) Analysis of ELISPOTS. […]

[3] = system: IFN-γ-secreting T cells (PBMC); assay: IFN-γ ELISPOT: frequency of TCR CDR2 peptide-specific cells in PBMC; settings: for frequency of IFN-γ-secreting cells: 5 healthy controls, mean, single peptide; for induction of IFN-γ-secreting T cells in HC: 5 HC
Procedure: as §1, §2, §3, §4, §5, §6, §7

With Tetanus toxoid the “Treg activity of T cell line specific for the antigen” value [1] was “did not have any detectable Treg activity”.

In the case of KHGEAPVFLMILLKGGEQKGH [AV29S1A2T], the “frequency of IL-10-secreting T cells” value ([2]; mean) is reported as over 1000 cells/million PBMC, the “frequency of responding cells (IL-10) in MS patients” value ([2]; MS patients, mean) is reported as over 1500 cells/million and the “frequency of responding cells (IL-10) in HC” value (“frequency … in HC” for short) [2] is reported as “about 1000 cells/million”.

In the case of KLEEELKFLVYFQNEELIQKA [BV10S1P], the “frequency of IFN-γ-secreting cells” value [3] is reported as “minimal frequencies” and the “frequency of IL-10-secreting T cells” value ([2]; mean) is reported as over 2000 cells/million PBMC.

In the case of DLGHGLRLIHYSYGVQDTNKG [BV12S2A1T], the “induction of IFN-γ-secreting T cells in HC” value (from here on “induction”) [3] is reported as “induced IFN-γ-secreting T cells in all 5 HC” and the “IFN-γ recognition by MS patients” value [3] is reported as “poorly recognized”.

In the case of DLGHGLRLIHYSYGVKDTNKG [BV12S2A2T], the “induction” value [3] is reported as “induced IFN-γ-secreting T cells in all 5 HC” and the “IFN-γ recognition by MS patients” value [3] is reported as “poorly recognized”.

With NQNKEFMLLISFQNEQVLQET [BV19S1P] the “frequency of IFN-γ-secreting cells” value [3] was 900 cells/million PBMC.

With SSGEMIFLIYQGSYDQQNATE [ADV6S1A1N1] the “induction” value [3] was “induced IFN-γ-secreting T cells in all 5 HC” and the “IFN-γ recognition by MS patients” value [3] was “poorly recognized”.

With VLKNEFKFLISFQNENVFDET [BV25S1A1T] the “frequency of responding cells (IL-10) in SPMS patient” value [2] was 450 cells/million, the “frequency … in HC” value [2] was 150 cells/million and the “IL-10 response, SPMS patient versus HC” value [2] was “responded better than HC”.

With ALGQGPQFIFQYYEEEERQRG [BV5S2] the “IL-10 response, MS patients versus HC” value [2] was “significantly lower; also recorded: significantly reduced frequencies”.

With SLGQGPEFLIYFQGTGAADDS [BV6S1A1N1] the “IL-10 response, MS patients versus HC” value [2] was “significantly lower” and the “IL-10 response, MS patients versus HC” value ([2]; listed as BV6S1A1N1T) was “significantly reduced frequencies”.

In the case of YPNQGLQLLLKYTSAATLVKG [AV1S2A1N1T], the “frequency of responding cells (IL-10) in SPMS patient” value [2] is reported as 300 cells/million, the “frequency of responding cells (IL-10) in two symptomatic RRMS patients” value ([2]; MS193 and MS74) is reported as over 1700 cells/million and the “frequency … in HC” value [2] is reported as under 25 cells/million. For the same substance, the “IL-10 response, SPMS patient versus HC” value [2] was “responded better than HC”.
